Assay results: patent US6579899B1, “Composition for treatment of stress” (Massachusetts Institute of Technology, priority 1998, dated 2003)
Where a name gives a salt, the structure may show the parent alone.

Experiments:
[1] = system: obese, stressed patients; assay: CES-D test of current levels of emotional distress in patients; format: in vivo, human
Description: (§1) A subgroup of obese individuals is identified, which individuals describe themselves as being unable to control their eating and who attempt to continue on a weight-reducing diet when experiencing emotional distress. […]
(§2) Objective measurements of emotional distress are made in some patients using the CES-D (Center for […] Depression Form) test, which measures current levels of emotional distress (Radloff, et al., The CES-D Scale: A Self Report Depression Scale for Research in the General Population Applied Psychological Measurement 1: 385-401, 1977); and the POMS (Profile of Mood States test, that assesses tension, depression, anger and confusion (McNair, et al., Profile of Mood States Manual;San Diego: Educational and Industrial Testing Service, 1971); both of these references are hereby incorporated by reference in their entirety. These tests are also given monthly during the treatment period. At the same time, patients also complete questionnaires that ask the patients to rate their appetite and hunger, and also to rate their tendency to eat in response to a variety of emotional and stressful triggers. The patients are also weighed monthly.

[2] = system: obese, stressed patients; assay: questionnaire rating appetite and hunger; format: in vivo, human; set-up: Appetite and Cravings: scale not given here
Description: as §1, §2

[3] = system: obese, stressed patients; assay: questionnaire rating tendency to eat in response to emotional and stressful triggers; format: in vivo, human; set-up: Emotional Triggers: scale not given here
Description: as §1, §2

[4] = system: Sprague-Dawley rats; assay: stress related eating (clamp tightened on the tail) in rats; format: in vivo, rat; conditions: for Stress Eating, relative amount with 0 mg/kg as 100% / Stressed Rats, average amount of food consumed per rat / Stress Eating / Control Rats, average amount of food consumed per rat: 8 hours; for Stressed Rats, average amount of food consumed per rat: clamp tightened on the tail; for Stress Eating: stressed minus control rats; for Control Rats, average amount of food consumed per rat: untightened clamp
Method: The effect of the hydrochloride salt of 6-chloro-2-(1-piperazinyl)pyrazine (MK-212, which is obtained from Merck & Co., Inc. Whitehouse Station, N.J.), on stress related eating in animals is determined through the observation of the effect of experimental compounds on stress-related eating in adult Sprague-Dawley rats. These rats are widely used as a recognized animal model useful in predicting the effect of serotoninergic drugs in humans.
In these experiments, a group of 5 adult female and 5 adult male Sprague-Dawley rats weighing between 200 and 250 grams each are used as control animals. An untightened clamp is placed on the tail of these animals. The untightened clamp provides the unstressed condition. Each animal is placed in an individual cage and allowed free access to food. The amount of food consumed is determined at 2, 4 and 8 hours after the initiation of the trial. A similar group of rats has a clamp tightened on the tail. The amount of food consumed by this stressed group of rats is shown in the 0 mg/kg column. […] similar groups of stressed rats are injected with 1, 2, 5, or 10 mg/kg body weight of MK-212 one hour before initiation of the experiment.
The relative amounts of stress eating with the amount at 0 mg/kg MK-212 as 100% is also shown in the Stress Eating row. The preferred daily dose of MK-212 is about 1 mg/kg body weight to about 10 mg/kg body weight.

[5] = patient nine, 100 mg/day in divided doses, Month 1, baseline 9
[6] = patient nine, 100 mg/day in divided doses, Month 2, baseline 9
[7] = patient nine, 100 mg/day in divided doses, Month 3, baseline 9
[8] = patient nine, 100 mg/day in divided doses, Month 4, baseline 9
[9] = 1 mg/kg injected one hour before
[10] = 2 mg/kg injected one hour before
[11] = 5 mg/kg injected one hour before
[12] = 10 mg/kg injected one hour before

COc1ccc(C(CN(C)C)C2(O)CCCCC2)cc1 (centres unmarked) [venlafaxine hydrochloride]
Mood Scores CES-D ([1]; patient ten, 75 rising to 150 mg/day, Month 1, baseline 8): 4
Mood Scores CES-D ([1]; patient ten, 75 rising to 150 mg/day, Month 2, baseline 8): 6
Mood Scores CES-D ([1]; patient ten, 75 rising to 150 mg/day, Month 3, baseline 8): 2
Mood Scores CES-D ([1]; patient ten, 75 rising to 150 mg/day, Month 4, baseline 8): 2
Appetite and Cravings ([2]; patient ten, 75 rising to 150 mg/day, Month 1, baseline 10): 6
Appetite and Cravings ([2]; patient ten, 75 rising to 150 mg/day, Month 2, baseline 10): 7
Appetite and Cravings ([2]; patient ten, 75 rising to 150 mg/day, Month 3, baseline 10): 3
Appetite and Cravings ([2]; patient ten, 75 rising to 150 mg/day, Month 4, baseline 10): 1
Emotional Triggers ([3]; patient ten, 75 rising to 150 mg/day, Month 1, baseline 14): 9
Emotional Triggers ([3]; patient ten, 75 rising to 150 mg/day, Month 2, baseline 14): 4
Emotional Triggers ([3]; patient ten, 75 rising to 150 mg/day, Month 3, baseline 14): 6
Emotional Triggers ([3]; patient ten, 75 rising to 150 mg/day, Month 4, baseline 14): 2

O=c1n(CCCN2CCN(c3cccc(Cl)c3)CC2)nc2ccccn12 [trazodone hydrochloride]
Mood Scores CES-D [1, 5]: 16
Mood Scores CES-D [1, 6]: 16
Mood Scores CES-D [1, 7]: 10
Mood Scores CES-D [1, 8]: 1
Appetite and Cravings [2, 5]: 5
Appetite and Cravings [2, 6]: 5
Appetite and Cravings [2, 7]: 3
Appetite and Cravings [2, 8]: 5
Emotional Triggers ([3]; patient nine, 100 mg/day in divided doses, Month 1, baseline 12): 12
Emotional Triggers ([3]; patient nine, 100 mg/day in divided doses, Month 2, baseline 12): 9
Emotional Triggers ([3]; patient nine, 100 mg/day in divided doses, Month 3, baseline 12): 5
Emotional Triggers ([3]; patient nine, 100 mg/day in divided doses, Month 4, baseline 12): 3

CN(C)CCC=C1c2ccccc2CCc2ccccc21 [amitriptyline hydrochloride]
Mood Scores CES-D ([1]; patient twelve, 75 then 100 mg/day, Month 1, baseline 29): 22
Mood Scores CES-D ([1]; patient twelve, 75 then 100 mg/day, Month 2, baseline 29): 20
Mood Scores CES-D ([1]; patient twelve, 75 then 100 mg/day, Month 3, baseline 29): 23
Mood Scores CES-D ([1]; patient twelve, 75 then 100 mg/day, Month 4, baseline 29): 18
Appetite and Cravings ([2]; patient twelve, 75 then 100 mg/day, Month 1, baseline 19): 16
Appetite and Cravings ([2]; patient twelve, 75 then 100 mg/day, Month 2, baseline 19): 8
Appetite and Cravings ([2]; patient twelve, 75 then 100 mg/day, Month 3, baseline 19): 13
Appetite and Cravings ([2]; patient twelve, 75 then 100 mg/day, Month 4, baseline 19): 8
Emotional Triggers ([3]; patient twelve, 75 then 100 mg/day, Month 1, baseline 25): 22
Emotional Triggers ([3]; patient twelve, 75 then 100 mg/day, Month 2, baseline 25): 13
Emotional Triggers ([3]; patient twelve, 75 then 100 mg/day, Month 3, baseline 25): 5
Emotional Triggers ([3]; patient twelve, 75 then 100 mg/day, Month 4, baseline 25): 3

(S)-2-(Chloro-5-fluoro-indol-1-yl)-1-methylethylamine [Ro 60-0332/ORG 35035]
Stress Eating, relative amount with 0 mg/kg as 100% ([4]; 1 mg/kg): (103%)
Stress Eating, relative amount with 0 mg/kg as 100% ([4]; 2 mg/kg): (28%)
Stress Eating, relative amount with 0 mg/kg as 100% ([4]; 5 mg/kg): (17%)
Stress Eating, relative amount with 0 mg/kg as 100% ([4]; 10 mg/kg): (13%)
Stressed Rats, average amount of food consumed per rat [4, 9]: 4.87 g
Stressed Rats, average amount of food consumed per rat [4, 10]: 2.19 g
Stressed Rats, average amount of food consumed per rat [4, 11]: 1.83 g
Stressed Rats, average amount of food consumed per rat [4, 12]: 1.74 g
Stress Eating ([4]; 1 mg/kg): 3.58 g
Stress Eating ([4]; 2 mg/kg): 0.99 g
Stress Eating ([4]; 5 mg/kg): 0.60 g
Stress Eating ([4]; 10 mg/kg): 0.46 g
stress-related eating ([4]; stressed rats, 1-10 mg/kg): reduces stress-related eating
Control Rats, average amount of food consumed per rat [4, 9]: 1.29 g
Control Rats, average amount of food consumed per rat [4, 10]: 1.20 g
Control Rats, average amount of food consumed per rat [4, 11]: 1.21 g
Control Rats, average amount of food consumed per rat [4, 12]: 1.28 g
